Experiment [1] concerns Th1/17 differentiation, B cell effector functions and production of inflammatory cytokines (IL-6, TNF-α, IL-23). To be noted: cited from earlier work.
The test system of experiment [2] is MRL/lpr lupus-prone mice. To be noted: cited from earlier work.
Experiment [3] deals with mouse CAIA and CIA arthritis models. The settings on record: cited from earlier work.
Experiment [4] deals with DSS-induced colitis model in mice. The settings on record: cited from earlier work.
The target of experiment [5] is T1, β 5i (chymotrypsin-like activity) (Homo sapiens, UniProt P20618+P28062).
T1 construct: protease activity associated with the proteasome complex in cultured cells; endogenous in cells; host or cells: Ramos cells
Put plainly: Cell-Based Proteasome subunit activity/selectivity assay, β5i, substrate (ANW)2Rh110. To be noted: Ramos cells; substrate (ANW)2Rh110 (β5i); highest concentration tested 20 μM; read-out: Ic50:ramos:ac-(anw)2-r110. The method, boiled down:
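Cell-based fluorogenic assay measuring chymotrypsin-like β5i proteasome activity using the substrate (ANW)2Rh110. Cultured cells received 0.5 μl of 100× 4-fold serial diluted compounds or DMSO per well, were incubated 30 minutes at 37° C, then equilibrated 15 minutes at room temperature. After shaking one minute @ 700 rpm and 120 min room-temperature incubation, fluorescence was read at 500 nm excitation/519 nm emission on an Envision reader.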

For experiment [6], the target named is T2, β 1i (caspase-like) (Homo sapiens, UniProt P28065+P40306).
T2 construct: protease activity associated with the proteasome complex in cultured cells; endogenous in cells; host or cells: Ramos cells
The experiment is described as follows: Cell-Based Proteasome subunit activity/selectivity assay, β1i, substrate (PAL)2Rh110. The settings on record: Ramos cells; substrate (PAL)2Rh110 (β1i); highest concentration tested 20 μM; read-out: Ic50:ramos:rh110-(pal)2. The method, boiled down: (§1)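 Subunit activity in cultured cells read with subunit-selective fluorogenic Rh110 substrates: (LLE)2 for β1c, (PAL)2 for β1i, (KQL)2 for β2c/2i, (WLA)2 for β5c. Cells exposed to 4-fold serially diluted compound (top 20 μM) 30 min at 37 °C, then substrate 120 min at room temperature; fluorescence 500/519 nm.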

Experiment [7] deals with T3, β5c (chymotrypsin-like activity) (Homo sapiens, UniProt P20618+P28074).
T3 construct: protease activity associated with the proteasome complex in cultured cells; endogenous in cells; host or cells: Ramos cells
Put plainly: Cell-Based Proteasome subunit activity/selectivity assay, β5c, substrate (WLA)2Rh110. To be noted: Ramos cells; substrate (WLA)2Rh110 (β5c); highest concentration tested 20 μM; read-out: Ic50:ramos:rh110-(wla)2. The method, boiled down: as §1

The target in experiment [8] is T4, β 1c (caspase-like) (Homo sapiens, UniProt P28072+Q99436).
T4 construct: protease activity associated with the proteasome complex in cultured cells; endogenous in cells; host or cells: Ramos cells
Put plainly: Cell-Based Proteasome subunit activity/selectivity assay, β1c, substrate (LLE)2Rh110. To be noted: Ramos cells; substrate (LLE)2Rh110 (β1c); highest concentration tested 20 μM; read-out: Ic50:ramos:rh110-(lle)2. The method, boiled down:
as §1

Experiment [9] concerns β 2c/2i (trypsin-like). Put plainly: Cell-Based Proteasome subunit activity/selectivity assay, β2c/2i, substrate (KQL)2Rh110. The settings on record: Ramos cells; substrate (KQL)2Rh110 (β2c/2i); highest concentration tested 20 μM. The method, boiled down:
as §1

The term IC50 denotes the midpoint of a concentration-inhibition curve.

As for `COc1ccc(C[C@H](NC(=O)[C@H](C)NC(=O)CN2CCOCC2)C(=O)N[C@@H](Cc2ccccc2)C(=O)[C@@]2(C)CO2)cc1` [PR-957], the “block of Th1/17 differentiation, B cell effector functions and production of inflammatory cytokines (IL-6, TNF-α, IL-23)” value in [1] was “potently block”. In addition, in [2], the disease progression entry was “prevented disease progression”; the “plasma cells numbers and levels of anti-dsDNA IgG” value was “reduced plasma cells numbers and levels of anti-dsDNA IgG”. Besides, in [3], the disease score entry was “significantly decrease disease score”. The “inflammation and tissue destruction” value in [4] is “reduced inflammation and tissue destruction”.
Consider `COc1cc(C(F)(F)F)ccc1C(=O)NCCn1cc(C(=O)NC(C#N)c2ccc(C(F)(F)F)cc2)nn1` (centres unmarked) [Example 72, 1-[2-(2-Methoxy-4-trifluoromethyl-benzoylamino)-ethyl]-1H-[1,2,3]triazole-4-carboxylic acid [cyano-(4-trifluoromethyl-phenyl)-methyl]-amide], for which the IC50 in experiment [5] was 0.524 µM; in experiment [6], ≥ 20 µM; in experiment [7], ≥ 20 µM; in [8], ≥ 20 µM; in experiment [9] it was ≥ 20 µM.
Turning to `CCc1ccc(C(C#N)NC(=O)c2cn(CCNC(=O)c3ccc(Oc4ccc(Cl)cc4)cn3)nn2)cc1` (centres unmarked) [Example 43, 5-(4-Chloro-phenoxy)-pyridine-2-carboxylic acid [2-(4-{[cyano-(4-ethyl-phenyl)-methyl]-carbamoyl}-[1,2,3]triazol-1-yl)-ethyl]-amide], the half-inhibitory concentration (IC50) in [5] was 1.43 µM; in experiment [6], ≥ 20 µM; in experiment [7] it was 6.21 µM; in [8] it was ≥ 20 µM; in experiment [9] it was ≥ 20 µM.
Regarding `CCOC(=O)[C@H](CCc1ccccc1)NC(=O)c1cn(CCNC(=O)c2ccc(OC)c(OC)c2OC)nn1` [Example 80, (S)-4-Phenyl-2-({1-[2-(2,3,4-trimethoxy-benzoylamino)-ethyl]-1H-[1,2,3]triazole-4-carbonyl}-amino)-butyric acid ethyl ester], the IC50 is 0.447 µM in experiment [5]; ≥ 20 µM in experiment [6]; ≥ 20 µM in [7]; ≥ 20 µM in experiment [8]; ≥ 20 µM in experiment [9].
As to `CCc1ccc(C(C#N)NC(=O)c2nc(CCNC(=O)c3ccc(C(F)(F)F)cc3OC)n[nH]2)cc1` (centres unmarked) [Example 90, 5-[2-(2-Methoxy-4-trifluoromethyl-benzoylamino)-ethyl]-2H-[1,2,4]triazole-3-carboxylic acid [cyano-(4-ethyl-phenyl)-methyl]-amide], the half-inhibitory concentration (IC50) was 0.014 µM in experiment [5]; ≥ 20 µM in experiment [6]; ≥ 20 µM in experiment [7]; ≥ 20 µM in experiment [8]; ≥ 20 µM in [9].
Take `COC(=O)[C@H](Cc1cc2ccccc2[nH]1)NC(=O)c1cn(CCNC(=O)c2ccc(C(F)(F)F)cc2F)nn1` [Example 84, (S)-2-({1-[2-(2-Fluoro-4-trifluoromethyl-benzoylamino)-ethyl]-1H-[1,2,3]triazole-4-carbonyl}-amino)-3-(1H-indol-2-yl)-propionic acid methyl ester]: the IC50 in experiment [5] was 0.162 µM; in experiment [6], ≥ 20 µM; in [7], ≥ 20 µM; in experiment [8] it was ≥ 20 µM; in experiment [9], ≥ 20 µM.
Turning to `COc1ccc(C(=O)NCCn2cc(C(=O)N[C@@H](Cc3ccccc3)C(=O)C(=O)NCc3ccccc3)nn2)c(OC)c1OC` [Example 88, 1-[2-(2,3,4-Trimethoxy-benzoylamino)-ethyl]-1H-[1,2,3]triazole-4-carboxylic acid ((S)-1-benzyl-2-benzylcarbamoyl-2-oxo-ethyl)-amide], the 50% inhibitory concentration (IC50) in experiment [5] is 0.461 µM; in experiment [6], ≥ 20 µM; in experiment [7] it was 8.6 µM; in [8], ≥ 20 µM; in experiment [9], ≥ 20 µM.
With `COc1ccc(C(=O)NCCn2cc(C(=O)NC(C#N)c3ccc4c(c3)OCO4)nn2)c(OC)c1OC` (centres unmarked) [Example 53, 1-[2-(2,3,4-Trimethoxy-benzoylamino)-ethyl]-1H-[1,2,3]triazole-4-carboxylic acid (benzo[1,3]dioxol-5-yl-cyano-methyl)-amide], the IC50 is 0.585 µM in experiment [5]; ≥ 20 µM in [6]; ≥ 20 µM in [7]; ≥ 20 µM in experiment [8]; ≥ 20 µM in experiment [9].
With `COc1ccc(C(=O)NCCn2cc(C(=O)NCc3ccc(Cl)cc3)nn2)c(OC)c1OC` [Example 5, 1-[2-(2,3,4-Trimethoxy-benzoylamino)-ethyl]-1H-[1,2,3]triazole-4-carboxylic acid 4-chloro-benzylamide], the IC50 was 6.49 µM in experiment [5]; ≥ 20 µM in experiment [6]; ≥ 20 µM in [7]; ≥ 20 µM in experiment [8]; ≥ 20 µM in experiment [9].
For the molecule `CC1=C(C(=O)NCCn2cc(C(=O)NC(C#N)c3ccc(C(F)(F)F)cc3)nn2)Cc2ccccc21` (centres unmarked) [Example 70, 1-{2-[(3-Methyl-1H-indene-2-carbonyl)-amino]-ethyl}-1H-[1,2,3]triazole-4-carboxylic acid [cyano-(4-trifluoromethyl-phenyl)-methyl]-amide], the IC50 in experiment [5] was 0.445 µM; in experiment [6], ≥ 20 µM; in [7] it was 10.8 µM; in experiment [8] it was ≥ 20 µM; in experiment [9], ≥ 20 µM.
For `CCc1ccc(C(C#N)NC(=O)c2cn(CCNC(=O)c3ccc(C(F)(F)F)cn3)nn2)cc1` (centres unmarked) [Example 45, 5-Trifluoromethyl-pyridine-2-carboxylic acid [2-(4-{[cyano-(4-ethyl-phenyl)-methyl]-carbamoyl}-[1,2,3]triazol-1-yl)-ethyl]-amide], the half-maximal inhibitory concentration (IC50) was 1.13 µM in [5]; ≥ 20 µM in experiment [6]; ≥ 20 µM in [7]; ≥ 20 µM in [8]; ≥ 20 µM in experiment [9].
With `CCc1ccc(C(C#N)NC(=O)c2cn(CCNC(=O)c3cncc(Br)c3OC)nn2)cc1` (centres unmarked) [Example 30, 5-Bromo-N-[2-(4-{[cyano-(4-ethyl-phenyl)-methyl]-carbamoyl}-[1,2,3]triazol-1-yl)-ethyl]-4-methoxy-nicotinamide], the 50% inhibitory concentration (IC50) in [5] was 1.02 µM; in experiment [6], ≥ 20 µM; in experiment [7], 6.78 µM; in experiment [8], 17 µM; in [9], ≥ 20 µM.
On to `CCc1ccc(C(C#N)NC(=O)c2cn(CCNC(=O)c3ccc(F)cc3OC)nn2)cc1` (centres unmarked) [Example 36, 1-[2-(4-Fluoro-2-methoxy-benzoylamino)-ethyl]-1H-[1,2,3]triazole-4-carboxylic acid [cyano-(4-ethyl-phenyl)-methyl]-amide], for which the IC50 in [5] was 2.06 µM; in experiment [6] it was ≥ 20 µM; in experiment [7] it was ≥ 20 µM; in experiment [8] it was ≥ 20 µM; in experiment [9] it was ≥ 20 µM.

The values are drawn from patent publication US20150299143A1, “SUBSTITUTED TRIAZOLE AND IMIDAZOLE COMPOUNDS” (HOFFMANN-LA ROCHE INC., priority 2012, published 2015).
